US10766857B2, “Compound having BLT inhibitory activity and composition, for preventing or treating inflammatory diseases, comprising same as active ingredient” (DONGGUK UNIVERSITY INDUSTRY-ACADEMIC COOPERATION FOUNDATION, priority 2015, dated 2020)

Key:
[1] = system: severe asthma-induced mice; experiment: OVA-induced asthma mice: AHR and IL-4; assay type: in vivo; settings: pre-treated at 10 μM (so in the source)
Source text: Mast cells play a pivotal role in the initial reaction to asthma, and when an allergen enters the body from the outside through an airway, the mast cells are activated, thereby secreting various cytokines (interleukin-4 and interleukin-13). Due to the cytokines, the influx of inflammatory cells, the generation of mucus and the airway contraction occur. The inventors used 7-week-old (18 to 20 g) female BALB/c mice provided by Orient (Seoungnam, Korea) for the experiment to confirm the antiasthma effect, and then the asthma was induced in the mice. […] On the 24th day of the initial sensitization, airway hyperresponsiveness (AHR) was detected, and on the 25th day, the mice were dissected to observe asthma phenotypes, for example, inflammatory cytokine IL-4 expression and the influx of inflammatory cells (neutrophils). […] On the 23rd day of the initial sensitization, AHR was detected, and on the 24th day, the mice were dissected to observe a severe asthma phenotype, for example, the influx of the inflammatory cells (neutrophils). […] The AHR was analyzed using an enhanced pause as the indicator of the asthma phenomenon. Bronchoalveolar lavage fluid cell counts were quantified by counting cells under an optical microscope (magnification, 200×). In each analysis, 4 fields were subjected to counting, each sample was analyzed twice, and the analysis was repeated three times.

[2] = system: MDA-MB-231 cells; experiment: IL-8 expression (RT-PCR); assay type: cell-based
Method: (§1) The breast cancer cells such as the MDA-MB-231 cells were obtained from Korean Cell Line Bank (Seoul, Korea), and the MDA-MB-435 cells were provided by J. H. Lee (Asan Medical Center, Seoul, Korea). These cells were cultured in an RPMI 1640 medium (Invitrogen) containing 10% FBS (Life Technologies, Inc.), 1% penicillin (50 units/mL), and an antibiotic antimycotic solution (Life Technologies, Inc.) at 37° C. under a 5% CO2 condition.
(§2) To confirm the IL-8 expression according to the treatment of the compound of the present invention, total RNA was isolated from cells using Easy Blue (Intron, Sungnam, Korea), and quantified by absorbance at 260 nm. Complementary DNA (cDNA) was synthesized with the RNA (1.25 μg) through reverse transcription using a polymerase chain reaction (PCR) technique. An expression level was determined using primers specifically binding to IL-8 and glyceraldehyde-3-phosphate dehydrogenase (GAPDH).

[3] = system: MDA-MB-435 cells; experiment: IL-8 expression (RT-PCR); assay type: cell-based
Method: as §1, §2

[4] = system: cancer cells (MDA-MB-231); experiment: Metastasis of breast cancer cells in nude mice; assay type: in vivo; settings: MDA-MB-231 in nude mice, i.p.; LMT-696 and LY255283 2.5 mg/kg, U75302 0.25 mg/kg; 15 weeks
Method: An experiment for the metastasis of breast cancer cells according to the treatment of the compound of the present invention was approved by the Ethics Committee of Korea University, and all experimental animals used in this experiment were treated according to the approved guidelines of the Korea University Animal Care and Use Committee. Six-week-old female nude mice (Charles River, Wilmington, Mass.) were injected with cancer cells to confirm cancer cell metastasis. The breast cancer cells were pre-treated with the compound of the present invention (LMT-696, 10 μM), LY255283, U75302 and DMSO, and 24 hours later, harvested with trypsin-EDTA, resuspended in PBS, and then 2×10^6 of the breast cancer cells were intraperitoneally injected into mice anesthetized with zoletil (50 mg/kg). After five days, the compound of the present invention (LMT-696; 2.5 mg/kg), LY255283 (2.5 mg/kg), U75302 (0.25 mg/kg) and DMSO were injected intraperitoneally three times every five days. At 15 weeks after the injection of the breast cancer cells, the mice were dissected to observe the cancer cell metastasis.

[5] = system: MDA-MB-231 cells; experiment: Intracellular ROS generation (DCF fluorescence); assay type: cell-based; settings: 30 minutes treatment
Method: as §1
(§3) Intracellular ROS (H2O2) generated according to the treatment of the compound of the present invention (LMT-696) was measured as a function of DCF fluorescence. Specifically, before ROS measurement, 2×10^5 cells were grown in 60-mm wells, and cultured in a FBS-supplemented RPMI 1640 medium for 24 hours. To evaluate the effect of the compound of the present invention, the cells were treated with the compound (LMT-696) for 30 minutes. To measure the intracellular ROS, the cells were cultured with 20 μM of a H2O2-sensitive fluorescent material such as H2DCFDA [Molecular Probes (Eugene, Oreg.)] at 37° C. in a dark and humidified CO2 incubator for 20 minutes. […] A DCF fluorescent degree was measured with excitation and emission wavelengths at 488 and 530 nm, respectively, using a FACS Calibur flow cytometer (Becton Dickinson, N.J.).

[6] = system: MDA-MB-435 cells; experiment: Intracellular ROS generation (DCF fluorescence); assay type: cell-based; settings: 30 minutes treatment
Method: as §1, §3

Question: With `CCCCC(=O)N(CC#Cc1ccc(C(=O)N2CCN(C(C)C)CC2)cc1)c1ccccc1` [LMT-696, N-(3-(4-(4-isopropylpiperazine-1-carbonyl)phenyl)prop-2-ynyl)-N-phenylpentaneamide] as the compound, how does the AHR reduced ([1]; airway constrictor 50 mg/ml) read?
Answer: 70%

Question: What about the “generation of IL-4 reduced” value ([1]; cells isolated from the abdominal cavity of the mice) of the same compound?
Answer: 70%

Question: What about the IL-8 expression level [2] of the same compound?
Answer: significantly inhibited

Question: And the IL-8 expression level [3]?
Answer: significantly inhibited

Question: And the “metastasis of the cancer cells inhibited as compared with the control” value [4]?
Answer: 40%

Question: And the “inhibition of ROS generation” value [5]?
Answer: significant inhibition

Question: And the “inhibition of ROS generation” value [6]?
Answer: significant inhibition
